Reference: PMC4744035, “In Vivo, In Vitro, and In Silico Characterization of Peptoids as Antimicrobial Agents” (PLoS ONE, 2016)
In brackets after ≈: the same amount, converted by molar mass. Square brackets hold non-standard residues; d marks the D form. Peptide text beside a SMILES is read from it. Nspe = C[C@H](NCC(=O)O)c1ccccc1; Nlys = NCCCCNCC(=O)O

Experiments:
[1] = tested on: NIH 3T3 cells; assay: Metabolic activity, MTS assay; format: cell-based, mouse
Description: NIH 3T3 mouse fibroblast cells were cultured in complete Dulbecco’s Modified Eagle’s Media. A peptoid solution plate (100 µL per well) was prepared by serial dilution of aqueous peptoid stock solutions in Hank’s balanced salt solution. A day-old cell monolayer was washed thoroughly with Hank’s balanced salt solution and replenished with 100 µL Hank’s balanced salt solution per well. Peptoid solutions were transferred onto the day-old cell monolayers, which contained approximately 5000 cells per well. […] The average of six replicate trials is reported.

[2] = tested on: erythrocytes; assay: Hemolytic activity (HD10/HD50); format: cell-based
Text: Table 1 Characteristics of antimicrobial peptoids, screened for activity against B. subtilis and E. coli bacterial strains. | column: HD10 / HD50

[3] = tested on: K. pneumonia 61962 (ESBL); assay: microbe, parasite or virus in culture
Description: (§1) The MICs of test agents were measured using a modified broth micro-dilution method in Difco Mueller Hinton medium, on a panel of bacterial pathogens that were both susceptible and resistant to common antibiotics (S1 File). Briefly, serial dilutions were performed in 0.01% acetic acid containing 0.2% bovine serum albumin at 10-fold the desired final concentration. Ten μL of the 10-fold concentrated test reagents were added to each well of a 96-well polypropylene microtitre plate containing 90 μL of Mueller Hinton media per well. Bacteria were added to the plate from an overnight culture at a final concentration of 2–7 x 10^5 CFU/mL and incubated overnight at 37°C. The MIC is defined as the concentration at which no growth was observed.
(§2) Screening of peptoid antimicrobial activity against a panel of multidrug resistant superbugs was done according to the protocol described in the manuscript. The bacterial strains used in this panel included; P. aeruginosa PAO1 strain H103 [1], P. maltophilia ATCC#13637, S. aureus ATCC#25923 [1], E. faecalis ATCC#29212 [2], and E. cloacae 218R, constitutively expressing Class C chromosomal β-lactamase, were from the Hancock lab strains collection. An MRSA clinical isolate was kindly provided by Anthony Chow (Vancouver General Hospital, Vancouver, Canada). Two Klebsiella pneumoniae and two E. coli clinical isolates expressing extended spectrum β-lactamases (ESBL) were kindly provided by George Zhanel (Health Sciences Centre, Winnipeg, Canada). Vancomycin-resistant clinical isolates of Enterococcus faecalis and E. faecium were obtained from Ana M. Paccagnella (BC Centre for Disease Control, Vancouver, Canada). Three clinical isolates (#9, #198 and #213) of multi-drug resistant P. aeruginosa, were kindly provided by Carlos Kiffer (University of São Paulo, Brazil). […] Three P. aeruginosa clinical isolates of the Liverpool epidemic strain (LES) (H1027, H1030 and LES400) were all kindly provided by Craig Winstanley (University of Liverpool, UK). […] All tested bacterial strains were categorized as biohazard level 2 pathogens.

[4] = tested on: E. faecium mic80 (VRE); assay: microbe, parasite or virus in culture; conditions: mic80 (VRE)
Description: as §1, §2

[5] = tested on: P. aeruginosa 198 (MDR); assay: microbe, parasite or virus in culture; conditions: 198 (MDR)
Description: as §1, §2

[6] = tested on: E. faecalis W61950 (VRE); assay: microbe, parasite or virus in culture; conditions: W61950 (VRE)
Description: as §1, §2

[7] = tested on: E. faecium T62764 (VRE); assay: microbe, parasite or virus in culture; conditions: T62764 (VRE)
Description: as §1, §2

[8] = tested on: E. faecalis F43559 (VRE); assay: microbe, parasite or virus in culture; conditions: F43559 (VRE)
Description: as §1, §2

[9] = tested on: E. coli 63103 (ESBL); assay: microbe, parasite or virus in culture; conditions: 63103 (ESBL)
Description: as §1, §2

[10] = tested on: E. faecalis ATCC29212; assay: microbe, parasite or virus in culture; conditions: ATCC29212
Description: as §1, §2

[11] = tested on: E. coli 64771 (ESBL); assay: microbe, parasite or virus in culture; conditions: 64771 (ESBL)
Description: as §1, §2

[12] = tested on: P. aeruginosa H1027 (MDR); assay: microbe, parasite or virus in culture; conditions: H1027 (MDR)
Description: as §1, §2

[13] = tested on: S. aureus ATCC25923; assay: microbe, parasite or virus in culture; conditions: ATCC25923
Description: as §1, §2

[14] = tested on: P. aeruginosa LES400 (MDR); assay: microbe, parasite or virus in culture; conditions: LES400 (MDR)
Description: as §1, §2

[15] = tested on: E. cloacae 218R Class C β-lactamase; assay: microbe, parasite or virus in culture; conditions: 218R Class C β-lactamase
Description: as §1, §2

[16] = tested on: P. aeruginosa H103 (wild type); assay: microbe, parasite or virus in culture; conditions: H103 (wild type)
Description: as §1, §2

[17] = tested on: S. aureus C623 (MRSA); assay: microbe, parasite or virus in culture; conditions: C623
Description: as §1, §2

[18] = tested on: P. aeruginosa 213 (MDR); assay: microbe, parasite or virus in culture; conditions: 213 (MDR)
Description: as §1, §2

[19] = tested on: P. maltophilia ATCC13637; assay: microbe, parasite or virus in culture; conditions: ATCC13637
Description: as §1, §2

[20] = tested on: P. aeruginosa H1030 (MDR); assay: microbe, parasite or virus in culture; conditions: P. aeruginosa H1030 (MDR)
Description: as §1, §2

[21] = tested on: P. aeruginosa 9 (MDR); assay: microbe, parasite or virus in culture; conditions: 9 (MDR)
Description: as §1, §2

[22] = tested on: K. pneumonia 63575 (ESBL); assay: microbe, parasite or virus in culture
Description: as §1, §2

[23] = tested on: E. coli ATCC 35218; format: cell-based
Description: MICs against B. subtilis and E. coli screening bacterial strains were determined using serial dilution in 96-well microtiter plates in accordance with CLSI M7-A6 protocols. Briefly, peptoid solution in cation-adjusted Mueller-Hinton broth was prepared by 2:1 serial dilution with a total volume of 50 µL per well. In experimental wells, 50 µL of bacterial inoculums (1 x 10^6 CFU/mL) were added to the peptoid solutions. Positive controls consisted of 50 µL inoculums added to 50 µL cation-adjusted Mueller-Hinton broth containing no peptoid, while negative controls contained only cation-adjusted Mueller-Hinton broth. […] Experiments were reproducible among three independent replicates, each consisting of two parallel trials.

Compound | ID50 (inhibitory dose, metabolic activity) [1] [µM] | HD10 (hemolytic activity) [2] | HD50 (hemolytic activity) [2] | MIC [3] [µg/mL] | MIC [4] [µg/mL] | MIC [5] [µg/mL] | MIC [6] [µg/mL] | MIC [7] [µg/mL] | MIC [8] [µg/mL] | MIC [9] [µg/mL] | MIC [10] [µg/mL] | MIC [11] [µg/mL] | MIC [12] [µg/mL] | MIC [13] [µg/mL] | MIC [14] [µg/mL] | MIC [15] [µg/mL] | MIC [16] [µg/mL] | MIC [17] [µg/mL] | MIC [18] [µg/mL] | MIC E. coli [23] [µM] | also measured
C[C@H](NCC(=O)N(CCCCN)CC(=O)N(CC(=O)N(CCCCN)CC(=O)N(CCCCN)CC(=O)N(CCCCN)CC(=O)N(CC(=O)N(CCCCN)CC(=O)N(CC(=O)N(CCCCN)CC(=O)N(CCCCN)CC(=O)N(CC(=O)N(CC(=O)N(CCCCN)CC(=O)N(CC(N)=O)[C@@H](C)c1ccccc1)[C@@H](C)c1ccccc1)[C@@H](C)c1ccccc1)[C@@H](C)c1ccccc1)[C@@H](C)c1ccccc1)[C@@H](C)c1ccccc1)c1ccccc1 [1B15mer-NLys4,6,10, H-(Nspe-NLys)2-NLys2-(Nspe-NLys)2-NLys-Nspe2-NLys-Nspe-NH2] (H-[Nspe][Nlys][Nspe][Nlys][Nlys][Nlys][Nspe][Nlys][Nspe][Nlys][Nlys][Nspe][Nspe][Nlys][Nspe]-NH2) | 40 | >200 / >200 | >200 / >200 | – | – | – | – | – | – | – | – | – | – | – | – | – | – | – | – | – | –
C[C@H](NCC(=O)N(CCCCN)CC(=O)N(CC(=O)N(CCCCN)CC(=O)N(CCCCN)CC(=O)N(CC(=O)N(CC(=O)N(CCCCN)CC(=O)N(CC(=O)N(CCCCN)CC(=O)N(CCCCN)CC(=O)N(CC(=O)N(CC(=O)N(CCCCN)CC(=O)N(CC(N)=O)[C@@H](C)c1ccccc1)[C@@H](C)c1ccccc1)[C@@H](C)c1ccccc1)[C@@H](C)c1ccccc1)[C@@H](C)c1ccccc1)[C@@H](C)c1ccccc1)[C@@H](C)c1ccccc1)c1ccccc1 [1B15mer-NLys4,10, H-(Nspe-NLys-Nspe-NLys-NLys-Nspe)2-Nspe-NLys-Nspe-NH2] (H-[Nspe][Nlys][Nspe][Nlys][Nlys][Nspe][Nspe][Nlys][Nspe][Nlys][Nlys][Nspe][Nspe][Nlys][Nspe]-NH2) | 16 | >200 / >200 | >200 / >200 | 256 (≈ 116 µM) | 32 (≈ 14.5 µM) | 16 (≈ 7.26 µM) | 128 (≈ 58.1 µM) | 4 (≈ 1.81 µM) | 256 (≈ 116 µM) | 256 (≈ 116 µM) | – | – | – | – | – | – | – | – | – | – | –
C[C@@H](c1ccccc1)N(CC(N)=O)C(=O)CN(C(=O)CN(CCCCN)C(=O)CN(C(=O)CN(C(=O)CN(CCCCN)C(=O)CN(C(=O)CN(C(=O)CN(CCCCN)C(=O)[C@@H]1CCCN1C(=O)CN(C(=O)CNCCCCN)[C@@H](C)c1ccccc1)[C@@H](C)c1ccccc1)[C@@H](C)c1ccccc1)[C@@H](C)c1ccccc1)[C@@H](C)c1ccccc1)[C@@H](C)c1ccccc1 [Peptoid 1-Pro3, H-NLys-Nspe-L-Pro-(NLys-Nspe-Nspe)3-NH2] (H-[Nlys][Nspe]P[Nlys][Nspe][Nspe][Nlys][Nspe][Nspe][Nlys][Nspe][Nspe]-NH2) | – | 74 | > 200 | 32 (≈ 18.2 µM) | 4 (≈ 2.28 µM) | 16 (≈ 9.12 µM) | 16 (≈ 9.12 µM) | 2 (≈ 1.14 µM) | 8 (≈ 4.56 µM) | 16 (≈ 9.12 µM) | 8 (≈ 4.56 µM) | 8 (≈ 4.56 µM) | 2 (≈ 1.14 µM) | 4 (≈ 2.28 µM) | 8 (≈ 4.56 µM) | 16 (≈ 9.12 µM) | 8 (≈ 4.56 µM) | 4 (≈ 2.28 µM) | 8 (≈ 4.56 µM) | 12.5 (≈ 21.9 µg/mL) | MIC [19]: 1 µg/mL (≈ 0.57 µM); MIC [20]: 16 µg/mL (≈ 9.12 µM); MIC [21]: 128 µg/mL (≈ 72.9 µM); MIC [22]: 32 µg/mL (≈ 18.2 µM)
C[C@@H](c1ccccc1)N(CC(N)=O)C(=O)CN(C(=O)CN(CCCCN)C(=O)[C@@H]1CCCN1C(=O)CN(C(=O)CN(CCCCN)C(=O)CN(C(=O)CN(C(=O)CN(CCCCN)C(=O)CN(C(=O)CN(C(=O)CNCCCCN)[C@@H](C)c1ccccc1)[C@@H](C)c1ccccc1)[C@@H](C)c1ccccc1)[C@@H](C)c1ccccc1)[C@@H](C)c1ccccc1)[C@@H](C)c1ccccc1 [Peptoid 1-Pro9, H-(NLys-Nspe2)2-NLys-Nspe-L-Pro-(NLys-Nspe2)-NH2] (H-[Nlys][Nspe][Nspe][Nlys][Nspe][Nspe][Nlys][Nspe]P[Nlys][Nspe][Nspe]-NH2) | – | 165 | > 200 | 128 (≈ 72.9 µM) | 8 (≈ 4.56 µM) | 32 (≈ 18.2 µM) | 32 (≈ 18.2 µM) | 2 (≈ 1.14 µM) | 8 (≈ 4.56 µM) | 32 (≈ 18.2 µM) | 16 (≈ 9.12 µM) | 8 (≈ 4.56 µM) | 2 (≈ 1.14 µM) | 8 (≈ 4.56 µM) | 16 (≈ 9.12 µM) | 32 (≈ 18.2 µM) | 8 (≈ 4.56 µM) | 8 (≈ 4.56 µM) | 16 (≈ 9.12 µM) | 12.5 (≈ 21.9 µg/mL) | MIC [19]: 2 µg/mL (≈ 1.14 µM); MIC [20]: 32 µg/mL (≈ 18.2 µM); MIC [21]: 256 µg/mL (≈ 146 µM); MIC [22]: 64 µg/mL (≈ 36.5 µM)
C[C@@H](c1ccccc1)N(CC(N)=O)C(=O)CN(CCCCN)C(=O)CN(C(=O)CN(C(=O)CN(CCCCN)C(=O)CN(C(=O)CN(C(=O)CN(CCCCN)C(=O)CN(C(=O)CN(C(=O)CNCCCCN)[C@@H](C)c1ccccc1)[C@@H](C)c1ccccc1)[C@@H](C)c1ccccc1)[C@@H](C)c1ccccc1)[C@@H](C)c1ccccc1)[C@@H](C)c1ccccc1 [Peptoid 1_11mer, H-(NLys-Nspe-Nspe)3-NLys-Nspe-NH2] (H-[Nlys][Nspe][Nspe][Nlys][Nspe][Nspe][Nlys][Nspe][Nspe][Nlys][Nspe]-NH2) | 11 | 103 | > 200 | – | – | – | – | – | – | – | – | – | – | – | – | – | – | – | – | 6.3 (≈ 10.4 µg/mL) | –
